US20100113607A1, “Pharmaceutical Compositions” (priority 2000, published 2010)

System: onychomycosis
Assay: Topical treatment of a laser-perforated nail of a patient suffering from onychomycosis
Assay type: in vivo, human
Settings: composition containing 10% terbinafine by total weight, administered to laser-perforated nail, once daily for 12 weeks
Description: A composition containing 10% terbinafine based on the total weight of the composition is prepared and administered to a laser-perforated nail of a patient suffering from onychomycosis once daily for 12 weeks.

In the case of `CN(C/C=C/C#CC(C)(C)C)Cc1cccc2ccccc12` [terbinafine], the clinical effectiveness is reported as “progress of clinical effectiveness is seen with growth of the healthy nail”.
